Where two headings read alike, the source gives them in different places.
Columns and labels:
Type in all cases: cell-based
hGCGR = molecular target: T1, hGCGR (Homo sapiens, UniProt P47871); test: Functional cAMP formation (HTRF) in HEK-293 clonal cells expressing hGCGR, 0.1% bovine casein, without or with 1.0% human serum albumin
T1 construct: expressed in transfected cells
Method in brief: (§1)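 Readings of the HTRF 665/620 nm ratio, which falls as cAMP rises, were converted to nM cAMP using a standard curve after 30 min peptide exposure at 37° C.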

hGIPR = molecular target: T2, hGIPR (Homo sapiens, UniProt P48546); test: Functional cAMP formation (HTRF) in HEK-293 clonal cells expressing hGIPR, 0.1% bovine casein, without or with 1.0% human serum albumin; details: for Emax: read-out: hGIPR Emax, % ± SEM; for EC50: geometric mean
T2 construct: expressed in transfected cells
T2 sequence (P48546 22-466): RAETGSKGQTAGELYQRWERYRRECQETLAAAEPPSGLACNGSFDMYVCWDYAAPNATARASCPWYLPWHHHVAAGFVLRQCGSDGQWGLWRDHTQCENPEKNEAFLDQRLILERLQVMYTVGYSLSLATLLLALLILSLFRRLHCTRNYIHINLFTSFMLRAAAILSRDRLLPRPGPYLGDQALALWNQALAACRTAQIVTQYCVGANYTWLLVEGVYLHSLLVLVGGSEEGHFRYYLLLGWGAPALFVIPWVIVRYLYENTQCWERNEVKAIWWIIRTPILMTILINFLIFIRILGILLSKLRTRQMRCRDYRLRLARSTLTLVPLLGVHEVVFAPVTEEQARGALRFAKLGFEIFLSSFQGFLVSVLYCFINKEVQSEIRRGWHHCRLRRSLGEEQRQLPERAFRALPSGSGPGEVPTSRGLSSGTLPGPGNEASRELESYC
Method in brief: as §1

hGLP-1R = hGLP-1R (Homo sapiens, UniProt P43220); test: Functional cAMP formation (HTRF) in HEK-293 clonal cells expressing hGLP-1R, 0.1% bovine casein, without or with 1.0% human serum albumin; parameters: expressed in transfected cells
Sequence of hGLP-1R (P43220 24-463): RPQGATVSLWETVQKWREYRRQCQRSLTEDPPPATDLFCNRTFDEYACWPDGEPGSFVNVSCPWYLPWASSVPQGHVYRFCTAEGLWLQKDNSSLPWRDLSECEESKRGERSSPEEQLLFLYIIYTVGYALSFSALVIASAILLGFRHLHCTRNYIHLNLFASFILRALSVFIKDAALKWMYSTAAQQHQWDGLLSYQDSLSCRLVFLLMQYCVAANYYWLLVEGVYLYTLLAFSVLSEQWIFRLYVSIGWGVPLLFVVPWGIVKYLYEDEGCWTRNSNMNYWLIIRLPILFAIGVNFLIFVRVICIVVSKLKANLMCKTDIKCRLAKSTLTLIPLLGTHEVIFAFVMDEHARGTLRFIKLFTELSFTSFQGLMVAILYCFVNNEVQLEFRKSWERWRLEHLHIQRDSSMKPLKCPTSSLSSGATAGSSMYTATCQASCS
Method in brief: as §1

T1 sequence (P47871 26-477): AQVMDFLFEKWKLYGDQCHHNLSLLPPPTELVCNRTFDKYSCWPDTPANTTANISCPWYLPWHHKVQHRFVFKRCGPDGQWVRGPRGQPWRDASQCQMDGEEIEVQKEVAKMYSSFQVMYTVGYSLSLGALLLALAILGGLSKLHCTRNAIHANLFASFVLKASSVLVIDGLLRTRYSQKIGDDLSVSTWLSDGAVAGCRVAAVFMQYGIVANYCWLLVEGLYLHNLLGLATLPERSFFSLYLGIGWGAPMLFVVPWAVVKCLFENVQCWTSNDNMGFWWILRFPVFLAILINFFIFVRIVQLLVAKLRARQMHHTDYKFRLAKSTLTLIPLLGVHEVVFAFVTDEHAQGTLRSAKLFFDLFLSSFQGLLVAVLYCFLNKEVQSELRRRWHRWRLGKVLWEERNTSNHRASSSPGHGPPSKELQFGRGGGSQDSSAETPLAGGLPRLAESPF

`CCCCCCCCCCCC(=O)N[C@@H](CCC(=O)NCCOCCOCC(=O)NCCCC[C@H](NC(=O)[C@H](CO)NC(=O)[C@@H]1CCCN1C(=O)[C@@H]1CCCN1C(=O)[C@@H]1CCCN1C(=O)[C@H](C)NC(=O)CNC(=O)[C@H](CO)NC(=O)[C@H](CO)NC(=O)[C@@H]1CCCN1C(=O)CNC(=O)CNC(=O)[C@H](CCC(=O)O)NC(=O)[C@@H](NC(=O)[C@H](CC(C)C)NC(=O)[C@](C)(Cc1ccc(O)cc1)NC(=O)[C@@H](CCC(=O)O)NC(=O)[C@@H](NC(=O)[C@H](Cc1ccccc1)NC(=O)[C@H](CCC(=O)O)NC(=O)C(C)(C)NC(=O)[C@H](CCC(N)=O)NC(=O)[C@H](C)NC(=O)[C@H](CCCCNC(=O)COCCOCCNC(=O)CC[C@H](NC(=O)CCCCCCCCCCC)C(=O)O)NC(=O)[C@H](CCCN)NC(=O)[C@H](CC(=O)O)NC(=O)[C@H](CC(C)C)NC(=O)[C@](C)(CC(C)C)NC(=O)[C@@H](NC(=O)C(C)(C)NC(=O)[C@H](Cc1ccncc1)NC(=O)[C@H](CC(=O)O)NC(=O)[C@H](CO)NC(=O)[C@@H](NC(=O)[C@](C)(Cc1ccccc1F)NC(=O)[C@@H](NC(=O)CNC(=O)[C@H](CCC(=O)O)NC(=O)C(C)(C)NC(=O)[C@@H](N)Cc1ccc(O)cc1)[C@@H](C)O)[C@@H](C)O)[C@@H](C)CC)[C@@H](C)CC)[C@@H](C)CC)C(N)=O)C(=O)O` [Example 428] was tested, and the EC50 (hGCGR; cAMP, 37° C., 0.1% bovine casein (no human serum albumin), geometric mean, read-out: hGCGR EC50, nM (SEM, n)) was > 9950 nM, the EC50 (hGCGR; cAMP, 37° C., 0.1% bovine casein and 1.0% human serum albumin, geometric mean (SEM, n), read-out: hGCGR EC50, nM (SEM, n)) was > 9950 nM and the Emax (hGIPR; HEK293, cAMP, 37° C., 0.1% bovine casein and 1.0% human serum albumin, percent of maximal response to GIP(1-42)NH2) was 93.6%. The Emax (hGIPR; HEK293, cAMP, 37° C., 0.1% bovine casein, percent of maximal response to GIP(1-42)NH2, arithmetic mean) was 95.5%, the EC50 (hGIPR; cAMP, 37° C., 0.1% bovine casein (no human serum albumin), read-out: hGIPR EC50, nM (SEM, n)) was 0.00797 nM and the Emax (hGLP-1R; HEK293, cAMP, 37° C., 0.1% bovine casein and 1.0% human serum albumin, percent of maximal response to GLP-1(7-36)NH2, read-out: hGLP-1R Emax, % ± SEM) was 105%. The EC50 (hGLP-1R; cAMP, 37° C., 0.1% bovine casein (no human serum albumin), geometric mean, read-out: hGLP-1R EC50, nM (SEM, n)) was 0.102 nM and the EC50 (hGLP-1R; cAMP, 37° C., 0.1% bovine casein and 1.0% human serum albumin, geometric mean (SEM, n), read-out: hGLP-1R EC50, nM (SEM, n)) was 10.2 nM.
In the case of `CC[C@H](C)[C@H](NC(=O)[C@H](CC(C)C)NC(=O)[C@](C)(Cc1ccc(O)cc1)NC(=O)[C@@H](CCC(=O)O)NC(=O)[C@@H](NC(=O)[C@H](Cc1ccccc1)NC(=O)[C@H](CCC(=O)O)NC(=O)C(C)(C)NC(=O)[C@H](CCC(N)=O)NC(=O)[C@H](C)NC(=O)[C@H](CCCCNC(=O)COCCOCCNC(=O)COCCOCCNC(=O)CCCCCCCCCCCCC(=O)O)NC(=O)[C@H](CCCN)NC(=O)[C@H](CC(=O)O)NC(=O)[C@H](CC(C)C)NC(=O)[C@](C)(CC(C)C)NC(=O)[C@@H](NC(=O)[C@H](CO)NC(=O)[C@H](Cc1ccncc1)NC(=O)[C@H](CC(=O)O)NC(=O)[C@H](CO)NC(=O)[C@@H](NC(=O)[C@](C)(Cc1ccccc1F)NC(=O)[C@@H](NC(=O)CNC(=O)[C@H](CCC(=O)O)NC(=O)C(C)(C)NC(=O)[C@@H](N)Cc1ccc(O)cc1)[C@@H](C)O)[C@@H](C)O)[C@@H](C)CC)[C@@H](C)CC)C(=O)N[C@@H](CCC(=O)O)C(=O)NCC(=O)NCC(=O)N[C@@H](CCCCNC(=O)COCCOCCNC(=O)COCCOCCNC(=O)CCCCCCCCCCCCC(=O)O)C(=O)N[C@@H](CO)C(=O)N[C@@H](CO)C(=O)NCC(=O)N[C@@H](C)C(=O)N1CCC[C@H]1C(=O)N1CCC[C@H]1C(=O)N1CCC[C@H]1C(=O)N[C@@H](CO)C(N)=O` [Example 9], the EC50 (hGCGR; 0.1% bovine casein and 1.0% human serum albumin, 37° C., geometric mean, read-out: hGCGR EC50, nM (SEM, n)) is reported as > 9950 nM, the EC50 (hGCGR; cAMP, incubated at 37° C., 0.1% bovine casein (no human serum albumin), geometric mean, read-out: hGCGR EC50, nM (SEM, n)) is reported as > 9950 nM and the EC50 (hGIPR; 0.1% bovine casein and 1.0% human serum albumin, 37° C., read-out: hGIPR EC50, nM (SEM, n)) is reported as 0.211 nM. It also gave an Emax (hGIPR; HEK293, 0.1% bovine casein and 1.0% human serum albumin, 37° C., percent of maximal response to GIP(1-42)NH2) of 91.6 ± 4.63%, an Emax (hGIPR; HEK293, percent of maximal response to GIP(1-42)NH2, 37° C., 0.1% bovine casein, arithmetic mean) of 93.6 ± 2.36% and an EC50 (hGIPR; cAMP, incubated at 37° C., 0.1% bovine casein (no human serum albumin), read-out: hGIPR EC50, nM (SEM, n)) of 0.0102 nM. The EC50 (hGLP-1R; 0.1% bovine casein and 1.0% human serum albumin, 37° C., geometric mean, read-out: hGLP-1R EC50, nM (SEM, n)) was 8.82 nM.
In the case of `CC[C@H](C)[C@H](NC(=O)[C@H](CCCN)NC(=O)[C@H](CC(=O)O)NC(=O)[C@H](CC(C)C)NC(=O)[C@](C)(CC(C)C)NC(=O)[C@@H](NC(=O)C(C)(C)NC(=O)[C@H](Cc1ccncc1)NC(=O)[C@H](CC(=O)O)NC(=O)[C@H](CO)NC(=O)[C@@H](NC(=O)[C@](C)(Cc1ccccc1F)NC(=O)[C@@H](NC(=O)CNC(=O)[C@H](CCC(=O)O)NC(=O)C(C)(C)NC(=O)[C@@H](N)Cc1ccc(O)cc1)[C@@H](C)O)[C@@H](C)O)[C@@H](C)CC)C(=O)N[C@@H](C)C(=O)N[C@@H](CCC(N)=O)C(=O)NC(C)(C)C(=O)N[C@@H](CCCCNC(=O)COCCOCCNC(=O)COCCOCCNC(=O)CC[C@H](NC(=O)CCCCCCCCCCOc1ccc(C(=O)O)cc1)C(=O)O)C(=O)N[C@@H](Cc1ccccc1)C(=O)N[C@H](C(=O)N[C@H](CCC(=O)O)C(=O)N[C@@](C)(Cc1ccc(O)cc1)C(=O)N[C@@H](CC(C)C)C(=O)N[C@H](C(=O)N[C@@H](CCCCNC(=O)COCCOCCNC(=O)COCCOCCNC(=O)CC[C@H](NC(=O)CCCCCCCCCCOc1ccc(C(=O)O)cc1)C(=O)O)C(=O)NCC(=O)NCC(=O)N1CCC[C@H]1C(=O)N[C@@H](CO)C(=O)N[C@@H](CO)C(=O)NCC(=O)N[C@@H](C)C(=O)N1CCC[C@H]1C(=O)N1CCC[C@H]1C(=O)N1CCC[C@H]1C(=O)N[C@@H](CO)C(N)=O)[C@@H](C)CC)[C@@H](C)CC` [Example 331], the EC50 (hGCGR; hGCGR EC50, nM (SEM, n), cAMP, 37° C., 0.1% bovine casein (no human serum albumin), geometric mean) is reported as > 9950 nM, the EC50 (hGCGR; hGCGR EC50, nM (SEM, n), cAMP, 37° C., 0.1% bovine casein and 1.0% human serum albumin, geometric mean (SEM, n)) is reported as > 9950 nM and the EC50 (hGIPR; hGIPR EC50, nM (SEM, n), cAMP, 37° C., 0.1% bovine casein (no human serum albumin)) is reported as 0.0113 nM. The Emax (hGLP-1R; HEK293, read-out: hGLP-1R Emax, % ± SEM, cAMP, 37° C., 0.1% bovine casein and 1.0% human serum albumin, percent of maximal response to GLP-1(7-36)NH2) was 114% and the EC50 (hGLP-1R; hGLP-1R EC50, nM (SEM, n), cAMP, 37° C., 0.1% bovine casein (no human serum albumin), geometric mean) was 0.436 nM.
With `CC[C@H](C)[C@H](NC(=O)[C@H](CC(C)C)NC(=O)[C@](C)(Cc1ccccc1)NC(=O)[C@H](CCCCNC(=O)COCCOCCNC(=O)COCCOCCNC(=O)CC[C@H](NC(=O)CCCCCCCCCCCCC(=O)O)C(=O)O)NC(=O)[C@@H](NC(=O)[C@](C)(Cc1ccccc1)NC(=O)[C@H](CCC(=O)O)NC(=O)C(C)(C)NC(=O)[C@H](CCC(N)=O)NC(=O)[C@H](C)NC(=O)[C@H](CCCCNC(=O)COCCOCCNC(=O)COCCOCCNC(=O)CC[C@H](NC(=O)CCCCCCCCCCCCC(=O)O)C(=O)O)NC(=O)[C@H](CCCN)NC(=O)[C@H](CC(=O)O)NC(=O)[C@H](CC(C)C)NC(=O)[C@](C)(CC(C)C)NC(=O)[C@@H](NC(=O)[C@H](CO)NC(=O)[C@@H](NC(=O)[C@H](CC(=O)O)NC(=O)[C@H](CO)NC(=O)[C@@H](NC(=O)[C@](C)(Cc1ccccc1F)NC(=O)[C@@H](NC(=O)CNC(=O)[C@H](CCC(=O)O)NC(=O)C(C)(C)NC(=O)[C@@H](N)Cc1ccc(O)cc1)[C@@H](C)O)[C@@H](C)O)C(C)C)[C@@H](C)CC)[C@@H](C)CC)C(=O)N[C@@H](CCC(=O)O)C(=O)NCC(=O)NCC(=O)N1CCC[C@H]1C(=O)N[C@@H](CO)C(=O)N[C@@H](CO)C(=O)NCC(=O)N[C@@H](C)C(=O)N1CCC[C@H]1C(=O)N1CCC[C@H]1C(=O)N1CCC[C@H]1C(=O)N[C@@H](CO)C(N)=O` [Example 122] the EC50 (hGCGR; hGCGR EC50, nM (SEM, n), cAMP, incubated at 37° C., 0.1% bovine casein (no human serum albumin), geometric mean) was > 9950 nM, the EC50 (hGIPR; hGIPR EC50, nM (SEM, n), cAMP, incubated at 37° C., 0.1% bovine casein (no human serum albumin)) was 0.064 nM and the Emax (hGLP-1R; HEK293, read-out: hGLP-1R Emax, % ± SEM, percent of maximal response to GLP-1(7-36)NH2, 37° C., 0.1% bovine casein, arithmetic mean) was 94.3%.

From US20230265151A1, “GIP/GLP1 CO-AGONIST COMPOUNDS” (priority 2020, published 2023)
